Data on two molecules can be found in patent publication US20220257664A1, “METHOD FOR REGULATION OF SELECTIVE DIFFERENTIATION OF MUSCULOSKELETAL STEM CELLS” (CELLATOZ THERAPEUTICS, INC., priority 2019, published 2022).

One test deals with hMSSCs. The test can be described thus: Induction of selective differentiation of hMSSCs transplanted into mouse. It counts as in vivo. The following applies: mixed with heparin, transplanted into subcutaneous tissue of mouse; FIG. 8. On the procedure: In order to measure the possibility of selective differentiation of hMSSCs, hMSSCs were transplanted into the kidney (kidney capsule) or subcutaneous tissue of Balb/c nude mouse by pretreating with various growth factors such as connective tissue growth factor, transforming growth factor, insulin, fibroblast growth factor, etc. and then preparing into a cell aggregate (4×10^5 cells) or mixing with a cell carrier. 3-6 weeks after the transplantation, tissue was analyzed after removing the transplanted cells.
For investigation of the selective differentiation capacity of the hMSSCs induced in the same manner as in Example 2 into muscle in vivo, hMSSCs were mixed with fibrin glue to which heparin was added and then transplanted into the subcutaneous tissue of an immunodeficient mouse. 7 weeks after the transplantation of hMSSCs, tissue was stained with H&E and the STEM101 antibody (Takara, Japan) binding to the human cell nucleus marker in order to identify whether the differentiated tissue was derived from the hMSSCs. In addition, the differentiated tissue was immunofluorescence staining with an antibody against the muscle marker MyoD (Thermo Fisher Scientific Inc., USA) in order to identify muscle cells. The cell nuclei were counterstained with DAPI. […]

Another test concerns hESCs. The test can be described thus: Differentiation tendency of MSSC medium vs. CM medium (number of differentiations out of 20 observations). It counts as cell-based, human. The following applies: noggin contained, as compared to CM medium. On the procedure: The differentiation capacity of a medium (hereinafter, referred to as “CM medium”) obtained by replacing human noggin (Life Technologies), which is the ingredient 1) of the seven ingredients of the MSSC medium of Example 2, with conditioned medium (culture supernatant obtained after culturing CF1 cells for 24 hours using complete medium wherein DMEM/F12 is replaced with knockout DMEM (knockout DMEM supplemented with 20% knockout serum replacement (Invitrogen, USA), 1 mM glutamine, 1% nonessential amino acids (Invitrogen, USA), 0.1 mM β-mercaptoethanol, 0.1% penicillin-streptomycin and 5 mg/mL bovine serum albumin) (the remaining ingredients 2)-7) are the same) was compared with that of the MSSC medium.
Noggin is generally used to maintain the characteristics of hESCs during culturing (Chaturvedi G, Simone P D, Ain R, Soares M J, Wolfe M W. Noggin maintains pluripotency of human embryonic stem cells grown on Matrigel. Cell Prolif. 2009 August; 42(4): 425-33).

For the molecule heparin, the “selective differentiation of hMSSCs” value in the test on hMSSCs is given as “differentiated selectively into muscle only”.

B1: noggin: human noggin, ingredient 1) of the MSSC medium, 250 ng/mL (protein, UniProt Q13253 28-232, looked up)
Noggin: QHYLHIRPAPSDNLPLVDLIEHPDPIFDPKEKDLNETLLRSLLGGHYDPGFMATSPPEDRPGGGGGAAGGAEDLAELDQLLRQRPSGAMPSEIKGLEFSEGLAQGKKQRLSKKLRRKLQMWLWSQTFCPVLYAWNDLGSRFWPRYVKVGSCFSKRSCSVPEGMVCKPSKSVHLTVLRWRCQRRGGQRCGWIPIQYPIISECKCSC
On to B1, for which, in the test with hESCs, the “increase of tendency of osteogenic differentiation” value was no less than 10 times.
